Reference: patent publication US9456589B2, “Elasmobranch-repelling compounds and methods of use” (priority 2005, dated 2016)
Values joined by “and” are separate entries in the source; they are usually repeats but may differ in a detail not shown here. Equal values may be shown once. “Also recorded” adds a separate entry of the source. Read-outs that look alike come from different tables or passages of the source.

What was measured:
Assay type in all cases: in vivo
[1] = tested on: juvenile lemon and nurse sharks; experiment: Tonic immobility, Micropipette Assay, summary over species; settings: for Micropipette Y (termination of tonic immobility), trials of trials: oral dose; for screening result: lemon and nurse sharks
Experimental: (§1) One bioassay used to observe and measure flight response is the tonic immobility test. Tonic immobility is a state of paralysis that typically occurs when a shark is subject to inversion of its body along the longitudinal axis. This state is called “tonic,” and the shark can remain in this state for up to 15 minutes thereby allowing researchers to observe effects of chemical repellents. The “tonic” state of the shark is first established by releasing seawater in proximity to the “tonic” shark with the same delivery instrument and at the same distance as a “test” repellent compound will be released. Some controls are released with a high flow rate (30 mL/sec) in order to establish that sharks are not awakened by a jet of fluid over their noses. Once behavioral controls are established, a compound or composition that may have a repelling effect is delivered to the shark. If the compound or composition engenders a flight response, the shark will awaken from the tonic state and rapidly attempt to flee the delivered repellent. Using this tonic immobility bioassay researches can quantify the strength of a repellent effect.
A fourth method of delivery was called the “Micropipette Assay” method of delivery. In this method, a very small dose (fraction of a mL) of a test substance was delivered directly into a shark's mouth. […] A response, such as a cough or other notable action of the shark, was usually noted when effective gustatory repellents were delivered directly into a shark's mouth while in tonic immobility.
The Micropipette Assay method has not proven to be a particularly effective method of assaying for a flight response in elasmobranchs. The Micropipette Assay method is, nevertheless, an excellent method for specifying that a gustatory response has occurred. It is effective for specifying a gustatory response because the micropipette delivery method allows direct delivery of an entire bolus of test substance into the mouth of the shark being tested.
An oral dose of no more than 400 microliters was then delivered by micropipette into the mouth of a juvenile nurse shark. Tonic immobility was terminated. For each derivative of butyric acid and each naturally occurring acid listed in Table 9, a first micropipette assay was performed on a juvenile lemon shark with no more than 100 microliters of test acid in an oral dose. A second micropipette assay was then performed on a juvenile nurse shark with no more than 400 microliters of test acid in an oral dose. In each test, tonic immobility was terminated.
In a first set of studies on the effectiveness of carboxylic acids as elasmobranch repellents, each tested substance was subjected to the following protocol. […] An oral dose of no more than 400 microliters was then delivered by micropipette into the mouth of a juvenile nurse shark. Tonic immobility was terminated. […] The data evidences the gustatory repelling activity of carboxylic acids.

[2] = tested on: sharks (lemon, nurse, tiger pooled); experiment: Tonic immobility, Hd Syringe Assay, summary over species; settings: for lowest volume of repellent that terminated tonic immobility: Hd Syringe, lemon and nurse sharks; for Hd-Syringe Y (termination of tonic immobility), trials of trials: species pooled
Experimental: as §1
In Hd-Syringe Assays, the 3-methylbutanal was delivered to the shark's mouth and nares using a 3 mL hypodermic syringe fitted with a 22 gauge needle. The needle was held within 3 inches of the shark's mouth and the test repellent was slowly released from the syringe with a very fine plume in the water column. Any response was denoted. If a response occurred during a measurable time after delivery of the test chemical, the time between delivery and response was noted. If a response occurred immediately or the response occurred before a measurable time could be established, no time to response was noted.

sharks (species pooled) = experiment: Tonic immobility, total of delivery methods not including Micropipette assays; settings: species and delivery methods pooled
Experimental: as §1
Table 1, which summarizes the data in Tables 14 and 15, evidences the gustatory repellent characteristics of methylbutanals. In 35 of 36 assays (combining columns “Y” and “R” under the column labeled “Total (Not including Micropipette Assays)” to arrive at a 97% effectiveness rate), including assays on lemon, nurse, tiger and blacktip sharks, the gustatory repellent activity of 3-methylbutanal was established. In 81% of assays, tonic immobility was fully terminated. […] In only a single assay did a shark not respond to treatment with 3-methylbutanal.

[3] = tested on: sharks (lemon, nurse, blacknose, blacktip pooled); experiment: Tonic immobility, Syringe Assay, summary over species
Experimental: as §1
A second delivery method called the “Syringe Assay” method delivered a dose of 60 mL or more of a test chemical repellent from at least one foot, and up to as many as five feet, from a shark. The distance of delivery was determined based on the strength of the water current in the direction of the shark. Time from delivery of the test substance until response was observed, measured and recorded. The “Syringe” method allows a researcher to observe how a diffusing and diluting cloud of test chemical repellent affects the shark's behavior when the shark encounters the delivered cloud of test substance. The “Syringe” method requires relatively large doses because of the diffusion of the cloud over time and distance. Time from delivery to response is related to the size of the bolus delivered from the syringe, distance of the shark from the syringe and water current.
In the Syringe assay about 60 mL or more of valeraldehyde was delivered from one to as many as five feet from the shark depending on the water current. […] Time from delivery to response was related to the size of the bolus delivered from the syringe, distance of the shark from the syringe and water current.

[4] = tested on: sharks (lemon, nurse, blacktip, tiger, blacknose pooled); experiment: Tonic immobility, Syringe 3/5/10 Assay, summary over species
Experimental: as §1
In the tonic immobility studies disclosed herein, several different methods were employed for delivery of repelling compounds. A first method for delivery of chemical repellent in tonic immobility studies employed a “Syringe 3/5/10 Assay” method. The “Syringe 3/5/10 Assay” method is so named because a test repellent is delivered to a shark from a distance of about “3” inches with a bolus of about “5” mL with a response to the test repellent considered positive if the shark reacts with a change in behavior within less than about “10” seconds from the time of delivery.
The “3/5/10 Syringe Assay” as employed herein delivered a dose of 5-6 mL of a test chemical repellent from a syringe fixed with a needle having a gauge of about 22 from a distance at least 3 inches in front of a shark. Because the test chemical repellent was delivered at a distance from the shark's nares and mouth, a cloud of test chemical repellent was dispersed over the shark within the water column. The dispersed test repellent was subject to water current direction, dispersion and dilution. As a result, a flight response within 10 seconds was considered a positive repellency response. […] Time from delivery to response is related to the size of the bolus delivered from the syringe, distance of the shark from the syringe and water current.
In Syringe 3/5/10 Assays, 5-6 mL of 3-methylbutanal was delivered at least 3 inches in front of the shark's mouth. A cloud of the repellent dispersed over the shark within the water column. […] As noted above, because the dispersion of the chemical repellent upon delivery is affected by volume of repellent, water current, and other factors, the time between delivery and response was not correlatable with the potency of the repellent.

[5] = juvenile lemon and nurse sharks

Compound	Micropipette Y (termination of tonic immobility), trials of trials [1, 5]	screening result [1]	Total (Not including Micropipette assays / Effective Delivery Methods) Y, trials of trials (sharks (species pooled))	Syringe Y (termination of tonic immobility), trials of trials [3]	also measured
CCC(C)(C)C(=O)O [2,2-Dimethylbutyric Acid]	2/2	repellents			
CC(C)C(C)C(=O)O (stereo not shown) [2,3-Dimethylbutyric Acid]	2/2	repellents			
CCC(CC)C(=O)O [2-Ethylbutyric Acid]	2/2	repellents			
CCC(=O)C(=O)O [2-Ketobutyric Acid]	2/2	repellents			
CCC(C)C=O (stereo not shown) [2-methylbutanal]			5/5		lowest volume of repellent that terminated tonic immobility [2]: 200 µL; Hd-Syringe Y (termination of tonic immobility), trials of trials [2]: In each assay tonic immobility was terminated and five of five and 5/5
CC=C(C)C=O [2-methylbutenal]					lowest volume of repellent that terminated tonic immobility [2]: 300 µL; Hd-Syringe Y (termination of tonic immobility), trials of trials [2]: All assays resulted in termination of tonic immobility and four of four and 4/4; Hd-Syringe Y (termination of tonic immobility), trials of trials ([2]; listed as 2-Methylbutenal): 4/4
CC(N)CC(=O)O (stereo not shown) [3-Aminobutyric Acid]	2/2	repellents			
C=CCC(=O)O [3-Butenoic Acid (vinylacetic acid), 3-Butenoic Acid]	2/2	shark repelling compounds			
CC(C)=CC=O [3-methylbutenal]					lowest volume of repellent that terminated tonic immobility [2]: 350 µL; Hd-Syringe Y (termination of tonic immobility), trials of trials [2]: All assays resulted in termination of tonic immobility and four of four and 4/4; Hd-Syringe Y (termination of tonic immobility), trials of trials ([2]; listed as 3-Methylbutenal): 4/4
CC(=O)CCCC(=O)O [4-Acetylbutyric Acid]	2/2	repellents			
COc1ccc(C=O)cc1 [Anisaldehyde, anisaldehyde]				1/1	
CCCCCC=O [Capronaldehyde, capronaldehyde]			1/1	1/1	Total Y, percent of trials (sharks (species pooled)): 100%
O=C/C=C/c1ccccc1 [Cinnimaldehyde, trans-cinnimaldehyde]			2/2	2/2	Syringe Y (termination of tonic immobility), trials of trials ([3]; listed as cinnimaldehyde): two of two; Syringe Y (termination of tonic immobility), trials of trials ([3]; listed as trans-cinnimaldehyde): resulted in termination of tonic immobility
O=C(O)CC(O)C(=O)O (stereo not shown) [Hydroxysuccinic Acid]	2/2				
CC(C)C=O [Isobutyraldehyde, isobutyraldehyde]			4/4	4/4	Total Y, percent of trials (sharks (species pooled)): 100%; Syringe Y (termination of tonic immobility), trials of trials ([3]; listed as isobutyraldehyde): All resulted in termination of tonic immobility
CCC=O [Propionaldehyde, propionaldehyde]			4/4	4/4	Total Y, percent of trials (sharks (species pooled)): 100%; Syringe Y (termination of tonic immobility), trials of trials ([3]; listed as propionaldehyde): All resulted in termination of tonic immobility
CC/C=C/C=O [Trans-pentenal, trans-pentenal]			5/5		Hd-Syringe Y (termination of tonic immobility), trials of trials [2]: 5/5; Hd-Syringe Y (termination of tonic immobility), trials of trials ([2]; listed as Pentenal): 5/5
O=C(O)CC(CC(=O)O)C(=O)O [Tricarballylic Acid]	2/2				
CC(C)(C)C=O [Trimethylacetaldehyde, trimethylacetaldehyde]			6/7	1/2	Hd-Syringe Y (termination of tonic immobility), trials of trials [2]: 5/5; Micropipette assays with a behavioral response within tonic immobility [1, 5]: change of behavior during tonic immobility; Total (Not including Micropipette assays / Effective Delivery Methods) N, trials of trials (sharks (species pooled)): 1/7; Total Y, percent of trials (sharks (species pooled)): 100%; Total (Not including Micropipette assays / Effective Delivery Methods) Y, trials of trials (sharks (species pooled); listed as trimethylacetaldehyde): resulted in termination of tonic immobility; Syringe N (no response), trials of trials [3]: 1/2
CCCCC=O [Valeraldehyde, valeraldehyde]			6/6	1/1	Hd-Syringe Y (termination of tonic immobility), trials of trials [2]: 5/5; Micropipette assays with a gustatory response (termination or behavior change) [1, 5]: six of six; also recorded: all Micropipette assays showed a response; Total Y, percent of trials (sharks (species pooled)): 100%; Total (Not including Micropipette assays / Effective Delivery Methods) Y, trials of trials (sharks (species pooled); listed as valeraldehyde): terminated tonic immobility; also recorded: six of six
CC(O)C(=O)O (stereo not shown) [lactic acid]					Syringe 3/5/10 N (no response), trials of trials [4]: no behavioral change and 1/3; Syringe 3/5/10 Y (termination of tonic immobility), trials of trials [4]: two of three and 2/3
O=C(O)/C=C/c1ccccc1 [trans-Cinnamic acid]	2/2				
